Holding throughout (format): in vivo
The test system of assay [1] is barnyardgrass (Echinochloa crusgalli). The experiment in a line: Postemergence herbicidal activity, barnyardgrass. The note with it: Echinochloa crus-galli, post-emergence, 336 h; Post, 2 lb/A. The method, boiled down:
(§1)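 Flats of soil-planted weed seeds were treated either right after sowing (preemergence) or two weeks after germination (postemergence). Application was a spray of acetone solution diluted in water, 50 gallons per acre carrier, dosed in lb/A.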

The test system of assay [2] is velvetleaf (Abutilon theophrasti). The assay can be described thus: Preemergence herbicidal activity, velvetleaf. The note with it: Abutilon theophrasti, pre-emergence, 336 h; Pre, 2 lb/A. Put shortly: (§2)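 For postemergence testing, seedlings grow two weeks in soil flats before spraying; for preemergence testing, flats are sprayed just after sowing. Application uses acetone stock diluted in water, 50 gal/acre carrier volume, stated lb/A rate. Control recorded as mean percent killed roughly two weeks later.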

Assay [3] has the same test system. The experiment in a line: Postemergence herbicidal activity, velvetleaf. The note with it: Abutilon theophrasti, post-emergence, 336 h, 2 lb/A. Put shortly:
as §1

The test system of assay [4] is morningglory (Ipomoca spp.). The assay can be described thus: Postemergence herbicidal activity, morningglory. The note with it: Ipomoea, post-emergence, 336 h, 2 lb/A. The method, boiled down:
as §2

Assay [5] concerns marigold (Tagetes spp.). The assay can be described thus: Postemergence herbicidal activity, marigold. The note with it: post-emergence, 336 h, 2 lb/A. The method, boiled down: as §2
For assay [6], the system named is morningglory (Ipomoca spp.). The experiment in a line: Preemergence herbicidal activity, morningglory. Particulars: Ipomoea, pre-emergence, 336 h, 2 lb/A. Put shortly: as §2
The subject of assay [7] is wild oats (Avena fatua). The assay can be described thus: Postemergence herbicidal activity, wild oats. The note with it: Avena fatua, post-emergence, 336 h, Post, 2 lb/A; read-out: % control, Wild oat. The method, boiled down: as §2
The test system of assay [8] is tomato (Lycopersicon esculentum). The assay can be described thus: Preemergence herbicidal activity, tomato. Particulars: Solanum lycopersicum, pre-emergence, 336 h; Pre, 2 lb/A. The method, boiled down: as §2
In assay [9] the test system is cocklebur (Xanthium pensylvanicum). The experiment in a line: Preemergence herbicidal activity, cocklebur. Particulars: Xanthium strumarium, pre-emergence, 336 h, 2 lb/A. The method, boiled down: as §2
Assay [10] deals with barnyardgrass (Echinochloa crusgalli). The assay can be described thus: Preemergence herbicidal activity, barnyardgrass. The note with it: Echinochloa crus-galli, pre-emergence, 336 h; Pre, 2 lb/A. The method, boiled down:
as §1

For assay [11], the system named is tomato (Lycopersicon esculentum). The assay can be described thus: Postemergence herbicidal activity, tomato. Particulars: Solanum lycopersicum, post-emergence, 336 h, Post, 2 lb/A. The method, boiled down: as §2
In assay [12] the test system is downybrome (Bromus tectorum). The experiment in a line: Postemergence herbicidal activity, downybrome. The note with it: Bromus tectorum, post-emergence, 336 h, Post, 2 lb/A. The method, boiled down: as §2
Assay [13] has as its system foxtail (Setaria spp.). The assay can be described thus: Preemergence herbicidal activity, foxtail. The note with it: Setaria, pre-emergence, 336 h; Pre, 2 lb/A. The method, boiled down:
as §2

Assay [14] has as its system downybrome (Bromus tectorum). The experiment in a line: Preemergence herbicidal activity, downybrome. Particulars: Bromus tectorum, pre-emergence, 336 h, Pre, 2 lb/A. Put shortly: as §2
In assay [15] the test system is cocklebur (Xanthium pensylvanicum). The experiment in a line: Postemergence herbicidal activity, cocklebur. Particulars: Xanthium strumarium, post-emergence, 336 h, 2 lb/A. The method, boiled down: as §2
Assay [16] concerns yellow nutsedge (Cyperus esculentus). The assay can be described thus: Postemergence herbicidal activity, yellow nutsedge. The note with it: Cyperus, post-emergence, 336 h, 2 lb/A. The method, boiled down:
as §2

Assay [17] concerns foxtail (Setaria spp.). The assay can be described thus: Postemergence herbicidal activity, foxtail. The note with it: Setaria, post-emergence, 336 h, Post, 2 lb/A. Put shortly: as §2
Assay [18] has as its system wild oats (Avena fatua). The assay can be described thus: Preemergence herbicidal activity, wild oats. The note with it: Avena fatua, pre-emergence, 336 h, Pre, 2 lb/A; read-out: % control, Wild oat. The method, boiled down: as §2
The subject of assay [19] is yellow nutsedge (Cyperus esculentus). The assay can be described thus: Preemergence herbicidal activity, yellow nutsedge. The note with it: Cyperus, pre-emergence, 336 h, 2 lb/A. Put shortly:
as §2

The test system of assay [20] is marigold (Tagetes spp.). The experiment in a line: Preemergence herbicidal activity, marigold. The note with it: pre-emergence, 336 h, 2 lb/A. The method, boiled down:
as §2

Consider five molecules from US4335249A, “Herbicidal diphenyl ethers, sulfides, sulfoxides and sulfones” (Rohm and Haas Company, priority 1976, dated 1982).

Take `CCOC(=O)C(C)Oc1ccc(Oc2ccc(C(F)(F)F)cc2C#N)cc1` (stereo not shown) [Example 37]: the pest or weed control at 2241.7 g/ha in [1] was 100%; in [2], 20%; in assay [3], 0%; in assay [4], 10%; with marigold (Tagetes spp.) [5], 10%; in assay [6] it was 40%. The pest or weed control at 2241.7 g/ha in the assay on wild oats (Avena fatua) [7] came out at 90%; in assay [8], 20%; in assay [9], 0%; in [10] it was 100%; in assay [11], 30%; in [12] it was 90%. Moreover, the pest or weed control at 2241.7 g/ha turned out to be 60% in the assay with foxtail (Setaria spp.) [13]; 95% in assay [14]; 30% in assay [15]; 0% in assay [16]; 95% with foxtail (Setaria spp.) [17]; 0% with wild oats (Avena fatua) [18]. For the same molecule, the pest or weed control at 2241.7 g/ha (in assay [19]; in the assay on marigold (Tagetes spp.) [20]) was 0% in each case.

With `CCOC(=O)CCC(C)Oc1ccc(Oc2ccc(C(F)(F)F)cc2Cl)cc1` (stereo not shown) [Example 38], the pest or weed control at 2241.7 g/ha in assay [1] stood at 100%; in [2], 0%; in assay [3], 0%; in assay [4] it was 0%; in the assay on marigold (Tagetes spp.) [5], 0%; in assay [6], 0%. Moreover, the pest or weed control at 2241.7 g/ha in the assay on wild oats (Avena fatua) [7] came out at 99%; in [8], 0%; in assay [9] it was 0%; in assay [10], 90%; in [11], 0%; in assay [12], 90%. In addition, the pest or weed control at 2241.7 g/ha in the assay on foxtail (Setaria spp.) [13] was determined as 100%; in assay [14], 0%; in [15], 0%; in [16], 0%; in the assay with foxtail (Setaria spp.) [17] it was 100%; in the assay with wild oats (Avena fatua) [18] it was 0%. In addition, the pest or weed control at 2241.7 g/ha (in assay [19]; in the assay with marigold (Tagetes spp.) [20]) was 0% throughout.

As for `CCOC(=O)CCC(C)Oc1ccc(Oc2ccc(C(F)(F)F)cc2)cc1` (stereo not shown) [Example 39], the pest or weed control at 2241.7 g/ha stood at 100% in [1]; 0% in assay [2]; 0% in assay [3]; 40% in assay [4]; 0% in the assay on marigold (Tagetes spp.) [5]; 0% in assay [6]. Further, the pest or weed control at 2241.7 g/ha is 100% with wild oats (Avena fatua) [7]; 0% in [8]; 0% in assay [9]; 99% in assay [10]; 20% in [11]; 100% in assay [12]. Further, the pest or weed control at 2241.7 g/ha in the assay on foxtail (Setaria spp.) [13] was 99%; in [14], 60%; in assay [15] it was 60%; in assay [16], 0%; with foxtail (Setaria spp.) [17] it was 100%; with wild oats (Avena fatua) [18] it was 50%. The pest or weed control at 2241.7 g/ha (in assay [19]; in the assay with marigold (Tagetes spp.) [20]) was 0% each time.

Consider `CC(Oc1ccc(Oc2ccc(C(F)(F)F)cc2)cc1)C(N)=O` (stereo not shown) [Example 40, 2-[4-(4-trifluoromethylphenoxy)phenoxy] propanamide], for which the pest or weed control at 2241.7 g/ha stood at 99% in assay [1]; 0% in assay [2]; 0% in [3]; 0% in assay [4]; 0% in the assay on marigold (Tagetes spp.) [5]; 0% in [6]. In addition, the pest or weed control at 2241.7 g/ha in the assay with wild oats (Avena fatua) [7] was determined as 95%; in assay [8] it was 0%; in assay [9], 0%; in assay [10], 99%; in [11], 0%; in [12] it was 40%. Further, the pest or weed control at 2241.7 g/ha stood at 100% in the assay with foxtail (Setaria spp.) [13]; 80% in assay [14]; 20% in assay [15]; 0% in assay [16]; 95% in the assay on foxtail (Setaria spp.) [17]; 60% in the assay on wild oats (Avena fatua) [18]. In addition, the pest or weed control at 2241.7 g/ha (in assay [19]; with marigold (Tagetes spp.) [20]) was 0% each time.

In the case of `CC(C#N)Oc1ccc(Oc2ccc(C(F)(F)F)cc2)cc1` (stereo not shown) [Example 41, 2-[4-(4-trifluoromethylphenoxy)phenoxy] propionitrile], the pest or weed control at 2241.7 g/ha in assay [1] came to 100%; in [2] it was 0%; in assay [3], 0%; in [4], 0%; in the assay on marigold (Tagetes spp.) [5], 0%; in [6], 0%. Besides, the pest or weed control at 2241.7 g/ha turned out to be 99% in the assay with wild oats (Avena fatua) [7]; 0% in assay [8]; 0% in assay [9]; 99% in assay [10]; 0% in assay [11]; 40% in assay [12]. The pest or weed control at 2241.7 g/ha in the assay with foxtail (Setaria spp.) [13] is 100%; in assay [14], 80%; in assay [15], 0%; in [16], 0%; in the assay with foxtail (Setaria spp.) [17], 60%; in the assay with wild oats (Avena fatua) [18] it was 70%. Moreover, the pest or weed control at 2241.7 g/ha (in [19]; with marigold (Tagetes spp.) [20]) was 0% throughout.
